According to patent publication US4279822A, “N-(1-Substituted-3-pyrrolidinyl)benzamides” (A. H. Robins Company, Inc., priority 1976, dated 1981):
Like-named read-outs stand apart in the source and are kept apart here.

Test system: apomorphine-induced emesis in dogs
Experiment: Reduction of apomorphine-induced emesis in dogs (anti-emetic effect)
Assay type: in vivo
Conditions: for ED50: Canis lupus familiaris, sc, 40 min, read-out: ED50, Anti-Emetic Effect of Subcutaneous Administration; for % Reduction in Emesis: 5 mg/kg s.c., percent reduction in emesis over that of controls
Description: The anti-emetic properties of the compounds of Formula I were established using a modification of the methods of Chen and Ensor, J. Pharmac. Exp. Ther. 98: 245-250 (1950) and of Leonard et al., J. Pharmac. Exp. Ther. 154: 339-345 (1966). Drug activity was assessed by its ability to reduce the frequency of apomorphine-induced emesis in dogs. The dogs were prescreened for fairly constant emetic responses to the subcutaneous administration of 0.1 mg/kg. of apomorphine hydrochloride, and those which vomited five or more times in the 40-minute period after apomorphine administration were selected for drug studies.
Groups of three dogs were used in preliminary tests and for the determinations of time of peak drug effect. Dose response curves were usually obtained using four drug-treated groups; each group contained at least three dogs. The dogs were fed approximately 17 hours prior to a test. Drugs were administered and at suitable intervals the dogs received 0.1 mg/kg of apomorphine hydrochloride subcutaneously. Frequency of emesis was determined during the next 40 minutes and emesis was counted as the actual expulsion of stomach contents.
In oral studies, drugs were administered in gelatin capsules (controls received an empty capsule). In the subcutaneous studies, drugs were administered in distilled water and/or polyethylene glycol-300.
Dogs were re-used at intervals of not less than one week. The ED50 is the dose which reduces the frequency of emesis of drug treated dogs to a value 50% below that of controls. Mean frequency of emesis for each drug treated group was compared with a mean control value derived by pooling the prior control emetic frequencies for all dogs used on that test day. The difference is expressed as a percentage decrease relative to controls. The percent decrease in mean frequency of emesis for each drug-treated group (ordinate) was plotted against log dose (abscissa) on semi-log graph sheets. The ED50 was calculated by the method of Goldstein (Biostatistics, An Introductory Test; Pages 156-161; The MacMillan Co., New York, 1964).

[1] = dogs, apomorphine hydrochloride 0.1 mg/kg s.c.

Compound | ED50 [mg/kg] | % Reduction in Emesis [1] [%] | other results
CC(=O)Nc1ccc(C(=O)NC2CCN(C3CCCCC3)C2)cc1 (stereo not drawn) [Example 4, N-(1-Cyclohexyl-3-pyrrolidinyl)-4-acetamidobenzamide] | 2.4 | – | –
CNc1ccc(C(=O)N(C)C2CCN(C3CCCCC3)C2)cc1.Cl.Cl (stereo not drawn) [Example 5, 4-Methylamino-N-(1-cyclohexyl-3-pyrrolidinyl)-N-methylbenzamide Dihydrochloride] | – | – | ED50 (dogs, s.c., doses expressed as free base, apomorphine hydrochloride 0.1 mg/kg s.c., 50% reduction of emesis frequency vs controls): 0.05 mg/kg
O=C(NC1CCN(C2CCCCC2)C1)c1cc([N+](=O)[O-])cc([N+](=O)[O-])c1 (stereo not drawn) [Example 6, N-(1-Cyclohexyl-3-pyrrolidinyl)-3,5-dinitrobenzamide] | 0.15 | – | –
CS(=O)(=O)N(c1ccc(C(=O)NC2CCN(C3CCCCC3)C2)cc1)S(C)(=O)=O (stereo not drawn) [Example 8, N-(1-Cyclohexyl-3-pyrrolidinyl)-4-[bis(methylsulfonyl)amino]benzamide] | – | -44 | –
O=C(NC1CCN(C2CCCCC2)C1)c1ccc(Cl)cc1Cl (stereo not drawn) [Example 14] | 2.4 | – | –
CC(=O)Nc1cccc(C(=O)NC2CCN(C3CCCCC3)C2)c1 (stereo not drawn) [Example 33] | – | -87 | –
CS(=O)(=O)Nc1ccc(C(=O)NC2CCN(C3CCCCC3)C2)cc1 (stereo not drawn) [Example 34] | – | -86 | –
CC(=O)Nc1ccccc1C(=O)NC1CCN(C2CCCCC2)C1 (stereo not drawn) [Example 35] | – | -95 | –
CC(=O)Nc1ccc(C(=O)NC2CCN(Cc3ccccc3)C2)cc1 (stereo not drawn) [Example 36] | – | -59 | –
